Each structure is given as a SMILES string.

As usually defined, the melting point is the temperature, or range, at which the solid turns liquid. `Cc1ccccc1CC(=O)N1C[C@@H]2C(=O)CCC(c3ccccc3)(c3ccccc3)[C@@H]2C1` (racemic) yielded a melting point of 196 °C. The figure for `N#Cc1cccc(CSc2nnc(-c3ccc4ncc(-c5ccccn5)n4c3)o2)c1` is 192 to 193 °C. As for `Nc1ncnc2c1ncn2Cc1nc2cccc(Cl)c2c(=O)n1-c1ccccc1F`, the melting point stood at 296 °C. The value for `CC(=O)Nc1ccc(C2COC(=O)O2)cn1` (stereo unspecified) was 135 to 139 °C; that for `CNC(=O)N(O)C(C)C#CCCc1ccccc1` (stereo unspecified) was 121 to 123 °C; that for `CN(N=C(Cl)c1c(F)cccc1F)S(=O)(=O)c1ccccc1` was 81.5 to 83 °C.

As to `O=C(c1ccc(N2CCCC2)cc1)C1CCN(Cc2ccccc2)CC1`, the melting point lay within 154 to 156 °C. As for `Cc1ccc2c(c1)C=Cc1cc(C)ccc1C2c1cn(Cc2nc(C(=O)Nc3nc(CC(=O)O)cs3)cs2)c(=O)[nH]c1=S`, the melting point was 200 to 205 °C. The figure for `C(=C\c1nc(COc2ccc(CCn3ccnc3)cc2)co1)/c1ccccc1` is 165 to 166 °C; for `Cc1nc2cccc3nc(SCCCCNS(=O)(=O)C(F)(F)F)c1n23` it is 129 to 131 °C. The value for `Cc1csc2ccc3[nH]c4c(c3c12)CN(CCCC(c1ccc(F)cc1)c1ccc(F)cc1)CC4` was 158 °C.

`CCC1=Nc2c(C)nn(C)c2C2=NCCN12` came in with a melting point of 148 to 150 °C.

For `CC(C)Oc1c(C(N)=O)oc2ccc(Cl)cc12`, the melting point was in the range of 154 to 155 °C. The value for `O=C(O)c1ccc2c(=O)n(CCCCN3CC=C(c4ccccc4)CC3)c(=O)[nH]c2c1` was 296 to 305 °C; that for `O=C(Nc1ccccc1S(=O)(=O)N1CCCCC1)N[C@@H](Cc1ccc(NC(=O)c2c(Cl)cncc2Cl)cc1)C(=O)O` was 223 °C. `CC(C)(C)[Si](C)(C)O[C@H]1CCC[C@@]2(C)[C@H]1CC[C@@H]2[C@]1(C)CC(=O)CO1`: the melting point worked out at 52 °C. The figure for `C=CCOc1ccc(C(=O)C=Cc2cc(OC)cc(OC)c2C)cc1` is 123 to 124 °C. The figure for `Oc1ccc(Cl)c(Cl)c1OCC1CO1` (stereo unspecified) is 92 to 94 °C. The figure for `CC(=O)Nc1cccc2c1C(=O)OC2(C)C` is 124 °C; for `NC(=O)c1ccc(F)c2c1CC(N(CCCc1c[nH]c3ccc(Cl)cc13)C1CCC1)CO2` (stereo unspecified) it is 152 to 160 °C; for `Cc1c(N2CCCCC2)ccnc1CSc1nc2cc(N3CCCCC3)c(F)cc2[nH]1` it is 161 to 162 °C.

In turn, `CCN1CCN(c2nccc(Oc3ccc(NC(=O)c4cc(F)cc(N5CCCCC5)c4)c4ccccc34)n2)CC1` displayed a melting point of 86 to 87 °C. Molecule `COc1cc2c(cc1O)CC(C)(C)N(Cc1cc(OC)c(OC)c(OC)c1)C2` returned a melting point of 143 to 147 °C. The figure for `C=C(C)c1ccncc1-c1c(O)cc(C(C)C(C)CCCCC)cc1O` (stereo unspecified) is 128 to 129 °C. The figure for `CCCCN(CCCC)c1ccc(C2(c3cc(Nc4ccccc4)ccc3OC)OC(=O)c3ccccc32)c(O)c1` (stereo unspecified) is 148 to 152 °C; for `O=C(Nc1ccc2ccc(Cl)nc2n1)c1ccc(Br)o1` it is 285 °C; for `COC(=O)CC[C@@H](C(N)=O)N1Cc2c(OCc3ccc(CN4CCOCC4)cc3)cccc2C1=O` it is 66 to 68 °C.

In turn, `CSCc1ccc2ncnc(Nc3cccc(C)c3)c2c1` came in with a melting point of 134 to 136 °C. The value for `CCOC(=O)N1CCN(c2ccc(C3=NNC(=O)CC3C)cc2F)CC1` (stereo unspecified) was 193 to 194 °C; that for `COC(=O)C=CC(=O)Nc1ccc(Cl)cc1C(=O)NC(C)C1CC1` (stereo unspecified) was 131 °C. The figure for `COC(=O)C1=C(C)NC(C)=C(C(=O)OC)C1C1CCC(C(=O)O)C1` (stereo unspecified) is 177 to 179 °C; for `C=CCc1c(Cl)cc2c(c1O)CCC2` it is 37 to 39 °C; for `CC(C)(C)OC(=O)[C@H]1N=CSC[C@]1(O)C(F)(F)F` it is 126 to 128 °C. The value for `O=C(c1ccco1)N1CCN(Cc2ccc(-c3cc4ncnc(Nc5ccc6[nH]ccc6c5)c4s3)cc2)CC1` was 167 to 174 °C; that for `N#Cc1c(SC(F)(F)F)c(NC(=O)C(F)(F)F)n(-c2c(Cl)cc(C(F)(F)F)cc2Cl)c1Cl` was 190 °C. Molecule `COc1ccc(SCCNC(=O)N2CCCC2=O)cc1` displayed a melting point of 64 to 65 °C. The value for `CC(=O)N(C#N)Cc1ccc(CN(C#N)C(C)=O)cc1` was 160 to 162 °C. The value for `CCCCOC(=O)c1ccccc1-c1ccc(Cn2c(CCC)nc(C(C)(C)O)c2C(=O)OCOC(=O)OC(C)C)cc1` was 85 to 87 °C; that for `O=C(O)CCCNS(=O)(=O)c1ccc(NC(=O)Nc2ccc(C(F)(F)F)cc2)cc1` was 172 to 175 °C. The figure for `Oc1cc2c(cc1CCCOc1ccc3ccccc3c1-c1nnn[nH]1)OC(CCc1ccccc1)C2` (stereo unspecified) is 121 to 123 °C; for `CCOC(=O)C(C#N)=CNc1ncc(C)cc1C` it is 156 to 159 °C; for `Cc1csc(N2CCN(Cc3ccc(C(=O)n4nccc4C)cc3)C2=O)n1` it is 96 to 97 °C. In turn, `CC1=C(C(=O)O)CCc2ccccc21` had a melting point of 127 °C. The value for `C#CCN(C(CCn1c(=O)[nH]c2ccccc2c1=O)C(=O)O)S(=O)(=O)c1ccc(Oc2ccccc2)cc1` (stereo unspecified) was 194 to 195 °C; that for `CC(=O)OC1CSC(Oc2ccc(-c3c(C)noc3C)nc2)C(OC(C)=O)C1OC(C)=O` (stereo unspecified) was 172 °C; that for `CS(=O)(=O)Nc1nn(CCN2CCCCC2)cc1-c1ccccc1` was 121 °C.

In turn, `O=C(O)CCCc1ccc(NS(=O)(=O)c2cccc(Cl)c2)cn1` showed a melting point of 141 to 142 °C. Consider `COc1cc(Br)cc(-c2ccc3nonc3c2)c1`, for which the melting point lay in the range of 135 to 137 °C. The figure for `CC(=O)NCC1CN(c2ccc(N3CCN(C(=O)COC(=O)c4cccnc4)CC3)c(F)c2)C(=O)O1` (stereo unspecified) is 173 to 175 °C. The figure for `CCOC(=O)N(C)n1cccc1C(=O)c1ccccc1` is 50 to 52 °C; for `OCC1=NOC(c2ccccc2)C1` (stereo unspecified) it is 73 to 74 °C; for `C=CCNC(=O)N1CC(OCc2cccc(C(F)(F)F)c2)C1` it is 108 °C. For `Cc1nc(C)c(-c2ccc(OC3SCC(O)C(O)C3O)cn2)s1` (stereo unspecified), the melting point was determined as 175 °C. The figure for `CNCC1(CF)CCN(c2c(F)cc3c(=O)c(C(=O)O)cn(C4CC4)c3c2OC)C1` (stereo unspecified) is 208 to 210 °C; for `CCCCCS(=O)(=O)NC(=O)CCc1ccc(OCCOC)cc1OCC1CCCO1` (stereo unspecified) it is 57.8 to 58.9 °C.

Consider `CC1NC(=O)NN=C1c1ccc(NCCCN)cc1` (stereo unspecified), for which the melting point is 178 to 179 °C. The value for `COC(=O)c1c(Cl)cc(Cl)cc1NC(=O)CSc1ccc(NC(=O)Cc2cccc(Br)c2)cc1` was 177 to 180 °C. Molecule `Cc1cc(-c2cc(C(F)(F)F)n3ncc(C(=O)Nc4nc(C)c(S(N)(=O)=O)s4)c3n2)ccc1C(F)(F)F` gave a melting point of 309 °C. In turn, `Cc1ncc2n1-c1ccc(Cl)cc1C(c1ccccc1F)=NC2O` (stereo unspecified) gave a melting point of 185 to 186 °C. The figure for `CCOc1c(OC)cc(N)cc1OC` is 88 to 89 °C; for `CCOC(=O)c1cccc(Cc2ccc3ccccc3c2O)c1` it is 86 to 87 °C; for `CCCNC(=O)CC=Cc1ccc2c(c1)c(Cc1ccc(C(=O)OC)cc1OC)cn2CCC` it is 140 to 142 °C. The value for `Nc1ccc(Cl)c(Cl)c1CO` was 134 to 135 °C; that for `COc1cc(O)c2c(c1)OC(C(C)(C)C=O)CC2=O` (stereo unspecified) was 93 to 94 °C; that for `NCc1ccc2c(c1)ncn2-c1cccc(-c2cccnc2)c1` was 107 to 110 °C. The value for `C#CCOC(=O)C1=C(C)NC(N)=C(C(=O)OCC)C1c1cccc([N+](=O)[O-])c1` (stereo unspecified) was 181 °C; that for `O=C(O)c1cnc(N2CCN(CC3CC3)C2=O)s1` was 250 to 252 °C.

In the case of `Cc1c(-c2ccccc2)c(N2CC[C@](C)(N)C2)c2oc(C(=O)N(C)C)nc2c1C#N`, the melting point lay in the range of 202 to 204 °C.

Take `CCOCCOc1ccc(CN/C=C2\C(=O)NC(=O)c3ccc(Br)cc32)cc1O`: the melting point lay in the range of 179 to 180 °C. For `Cc1ccc2c(c1)CCO2`, the melting point lay within 45 to 48 °C. The value for `C=C1SC(=O)N(c2ccc3cc(-c4ccc(OC)c(C5(C)CCCCC5)c4)ccc3c2)C1=O` was 268 to 271 °C. The figure for `O=C(NCCOc1cc(-c2ccccc2)on1)c1ccccc1` is 129 to 130 °C; for `COc1ccc(C(=O)Nc2ccc(OC)cc2NC(=O)c2ccc(OC)cc2)cc1` it is 238 to 239 °C. The value for `Cc1nc(N)c2ncn(CCCCNC(=O)N3CCOCC3)c2c1C` was 164 to 167 °C; that for `CC1CC2C3CC(Cl)C4=CC(=O)C=CC4(C)C3C(O)CC2(C)C1C(=O)CO` (stereo unspecified) was 128 °C; that for `CCC(C(=O)c1ccc(Cl)cc1)n1ncn(-c2cnc(N3CCN(c4ccc(OC)cc4)CC3)nc2)c1=O` (stereo unspecified) was 185 °C. As to `COc1nc(NC(=O)NS(=O)(=O)CC(C)Cl)nc(OC)n1` (stereo unspecified), the melting point lay in the range of 139 to 141 °C. The value for `C=C1OC(c2ccc(Cl)cc2)=NC1(C)CC` (stereo unspecified) was 55 to 57 °C; that for `CN1CCC2(CC1)SC(c1ccc(Cl)cc1)c1ccccc12` (stereo unspecified) was 121 to 123 °C; that for `C1=C(c2c[nH]c3ccccc23)CCN(CC2COc3ccc4c(c3O2)CCO4)C1` (stereo unspecified) was 207 to 209 °C. The figure for `CO[C@]12C[C@@H](CCN3CCC(O)(c4ccc(Cl)cc4)CC3)CN(C)[C@@H]1Cc1c[nH]c3cccc2c13` is 133 to 139 °C; for `O=C(NCc1ccccn1)Nc1cc(N2CC(c3ccccc3F)CC2=O)ccn1` (stereo unspecified) it is 173 to 174 °C.

The molecule `O=C(O)c1cccc(-n2ccc(-c3ccc(OC(F)(F)F)cc3)n2)c1` had a melting point of 191 to 194 °C. The figure for `CCOCCOc1ccc(CCNC(=O)c2cnc3ccccc3c2)cc1S(=O)(=O)NC(=S)NC` is 88 to 91 °C; for `COC(=O)[C@@H]1C[C@H](Oc2cc(-c3nc(C(C)C)cs3)nc3c(C)c(OC)ccc23)C[C@H]1C(=O)O` it is 135 °C; for `O=C(c1ccc2c(c1)sc(=O)n2CCOc1ccc(CC(OCC(F)(F)F)C(=O)O)cc1)C1CC1` (stereo unspecified) it is 124 to 128 °C.

The record behind these values is a melting point compilation (Tetko et al.; mined from patent text by program, amines drawn as free bases though some values may be those of a salt).
